In patent US20230127046A1, “G9a INHIBITOR” (RIKEN, priority 2019, published 2023):
Where two headings read alike, the source gives them in different places.

Assays:
[1] = test system: human lung cancer cell line NCI-H460; experiment: Colony formation inhibition test; assay type: cell-based; conditions: 288 h, NCI-H460 cells, culture for 12 days, read-out: Inhibitory activity (colony formation GI50)
Method: Each compound was evaluated for its colony formation inhibitory activity against a human lung cancer cell line NCI-H460. The NCI-H460 cells were cultured in a DMEM medium (FUJIFILM Wako Pure Chemical Corp., 044-29765) containing 10% fetal bovine serum and 4 mM glutamine. The cultured cells were washed with PBS, then detached with trypsin/EDTA, and adjusted to 2×10^3 cells/mL to prepare a cell suspension. The cell suspension was inoculated at 1 mL/well to a 12-well microplate (Corning Inc., 3513), and the test compound (DMSO solution) was added at 1 μL/well, followed by culture for 12 days under conditions of 37° C. and 5% CO2. DMSO was added at 1 μL/well to control wells with a final DMSO concentration set to 0.1%. The medium was discarded every day or every two days, and a fresh medium was added at 1 mL/well. The test compound or DMSO was added at 1 μL/well. The proportion of a colony of each well was measured using a high-speed cell imaging system (Tomy Digital Biology Co., Ltd., Celigo). The ratio of the colony in each compound-supplemented group was determined with the ratio of the colony formed in a test compound solution-unsupplemented well defined as 1. A compound concentration necessary for suppressing the rate of colony formation by 50% of the control (GI50) was calculated using data analysis software Origin (LightStone Crop.).

[2] = target: T1, recombinant human G9a protein (Homo sapiens, UniProt Q96KQ7); experiment: G9a inhibitory activity test (ALPHA); assay type: biochemical
T1 construct: purchased BPS Bioscience Inc. #51001
T1 sequence (Q96KQ7 785-1210 limits assumed): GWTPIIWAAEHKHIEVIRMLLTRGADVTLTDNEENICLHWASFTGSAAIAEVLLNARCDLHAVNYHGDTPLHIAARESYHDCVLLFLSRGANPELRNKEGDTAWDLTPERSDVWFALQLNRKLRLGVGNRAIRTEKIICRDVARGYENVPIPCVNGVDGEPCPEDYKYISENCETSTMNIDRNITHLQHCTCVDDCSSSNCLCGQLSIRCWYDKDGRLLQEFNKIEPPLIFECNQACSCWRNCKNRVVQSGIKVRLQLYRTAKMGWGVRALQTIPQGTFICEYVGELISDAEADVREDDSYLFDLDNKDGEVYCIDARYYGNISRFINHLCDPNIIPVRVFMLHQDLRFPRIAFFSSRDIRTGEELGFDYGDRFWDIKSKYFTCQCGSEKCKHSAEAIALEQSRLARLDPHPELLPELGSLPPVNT
How it was run: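 Human G9a (0.05 to 0.1 nM) in Tris pH 9.0 buffer preincubated with compound 10 min, then biotinylated histone H3 (1-21) peptide and SAM mixed 1:1 from 500 nM and 150 μM solutions, 1 h at room temperature. H3K9me2 detected by AlphaLISA acceptor/streptavidin donor beads; IC50 from percent inhibition relative to no-compound and no-enzyme controls.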

[3] = test system: intracellular histone H3K9 dimethylation level in human lung cancer cell line NCI-H460; experiment: Histone H3K9 dimethylation inhibitory activity test (Western blotting); assay type: cell-based; conditions: NCI-H460 cells, 72 hours
Method: The inhibitory activity of each compound against G9a was evaluated by adding the compound to a human lung cancer cell line NCI-H460, and detecting change in intracellular histone H3K9 dimethylation level by Western blotting. The NCI-H460 cells were cultured in a DMEM medium (FUJIFILM Wako Pure Chemical Corp., 044-29765) containing 10% fetal bovine serum and 4 mM glutamine. The cultured cells were washed with PBS and then detached with trypsin/EDTA, and the cell suspension was adjusted to 2.5×10^4 cells/mL. The cell suspension was inoculated at 500 μL/well to a 24-well microplate (Thermo Fisher Scientific, Inc., 142475) and cultured overnight under conditions of 37° C. and 5% CO2. On the next day, the test compound (solution in DMSO) was added at 0.5 µL/well and reacted for 72 hours under conditions of 37° C. and 5% CO2. DMSO was added at 0.5 μL/well to control wells (final DMSO concentration: 0.1%). The medium was removed, and the cells were washed with PBS. Then, a 2×SDS-PAGE sample buffer (100 mM Tris-HCl (pH 6.8), 4% sodium lauryl sulfate, 2% 2-mercaptoethanol, 20% glycerol, 0.005% bromophenol blue) was added at 50 μL/well to prepare a sample. The recovered sample was heated at 95 to 100° C. for 10 minutes, and protein was separated by polyacrylamide gel electrophoresis (SDS-PAGE). Subsequently, the separated protein was transferred to a polyvinylidene fluoride (PVDF) membrane by semi-dry blotting. The PVDF membrane was dipped in 3% skimmed milk (dissolved in PBS containing 0.05% Tween 20 (PBST)), blocked at room temperature for 30 to 60 minutes, then dipped in an anti-dimethylated histone H3K9 antibody (Abcam plc, ab1220) diluted 1000-fold with 3% skimmed milk, and reacted overnight at 4° C. On the next day, the PVDF membrane was washed three times with PBST, then dipped in a HRP (horseradish peroxidase)-labeled anti-mouse IgG antibody diluted 10000-fold with skimmed milk, and reacted at room temperature for 1 hour. The PVDF membrane was washed three times with PBST, then dipped in chemiluminescent substrate solution Immobilon Western Chemiluminescent HRP Substrate (Merck Millipore, WBKLS0500), incubated at room temperature for 5 minutes, and photographed with Lumino Image Analyzer (GE Healthcare Japan Corp., ImageQuant LAS4000).
Then, the antibody was stripped from the PVDF membrane using re-probe reagent EzReprobe (ATTO Corp., WSE-7240), and trimethylated histone H3K9 and histone H3 were detected by the same procedures as above. An anti-trimethyl histone H3K9 antibody (39161, diluted 1000-fold) from Active Motif, Inc. and an anti-histone H3 antibody (ab1791, diluted 2000-fold) from Abcam plc were used in the detection. The band of each protein was quantified from the taken image using image processing software ImageJ (NIH). The ratios of dimethylated histone H3K9 and trimethylated histone H3K9 to the histone H3 protein were calculated with the numeric value of a compound-unsupplemented sample defined as 100%. A compound concentration at which the ratio of dimethylated histone H3K9 was 50% was calculated as a 50% inhibition concentration (IC50 value) using data analysis software Origin (LightStone Corp.).

[4] = read-out: Inhibitory activity (G9a IC50)
[5] = biotinylated histone H3 peptide (1-21), SAM, read-out: Inhibitory activity (G9a IC50 value)

GI50 [1] [nM] | IC50 [2, 4] [nM] | IC50 [3] [nM] | IC50 [2, 5] [nM] | SMILES
≥ 1000 | ≥ 200 | 50 to 500 | – | CCCCC(NC(=O)Cc1ccccc1)C(=O)Nc1ccc(OC2CCN(C)CC2)nc1 (stereo not drawn) [Example 12-2]
≥ 1000 | < 50 | ≥ 500 | – | CCCC[C@H](NC(=O)c1[nH]c2c(c1C)C(=O)CC(C)(C)C2)c1nc2ccc(OCC3CCNCC3)cc2[nH]1 [Example 35-2]
500 to 1000 | 50 to 200 | < 50 | – | CCCC[C@H](NC(=O)c1[nH]c2c(c1C)C(=O)CC(C)(C)C2)C(=O)NCc1ccc(N2CCN(C)CC2)cc1 [Example 22-2]
≥ 1000 | 50 to 200 | ≥ 500 | – | CCCC[C@H](NC(=O)c1[nH]c2c(c1C)C(=O)CC(C)(C)C2)c1nc2ccc(OC3CCNCC3)cc2[nH]1 [Example 35-1, (S)-3,6,6-trimethyl-4-oxo-N-(1-(6-(piperidin-4-yloxy)-1H-benzo[d]imidazol-2-yl)pentyl)-4,5,6,7-tetrahydro-1H-indole-2-carboxamide]

Further lines, the compound ahead of its results:

SMILES | GI50 [1] [nM] | IC50 [2, 4] [nM] | IC50 [3] [nM] | IC50 [2, 5] [nM]
COc1ccc(NC(=O)C(CCC2CC2)NC(=O)c2ccc(N(C)c3ccncc3)cc2)cn1 (stereo not drawn) [Example 6-55] | < 500 | < 50 | 50 to 500 | –
Cc1c(C(=O)NC(CCC2CC2)C(=O)N2CCc3ccccc32)[nH]c2c1C(=O)CC(C)(C)C2 (stereo not drawn) [Example 1-81] | < 500 | – | 50 to 500 | 50 to 200
COc1ccc(NC(=O)C(CCC2CC2)NC(=O)c2ccc(Nc3cc(C)nc(C)c3)cc2)cn1 (stereo not drawn) [Example 6-62] | < 500 | < 50 | 50 to 500 | –
CCCCC(NC(=O)c1ccc(N2CCN(C)CC2)cc1Cl)C(=O)Nc1ccc(OC2CCN(C)CC2)nc1 (stereo not drawn) [Example 11-4] | ≥ 1000 | ≥ 200 | ≥ 500 | –
CCCC[C@H](NC(=O)c1[nH]c2c(c1C)C(=O)CC(C)(C)C2)C(=O)Nc1ccc(OC2CCN(C)CC2)cc1 [Example 6-32] | < 500 | < 50 | < 50 | –
Cc1c(C(=O)NC(CCC2CC2)C(=O)Nc2ccc(C#N)cc2)[nH]c2c1C(=O)CC(C)(C)C2 (stereo not drawn) [Example 1-79] | < 500 | – | < 50 | 50 to 200
CCCC[C@H](NC(=O)c1[nH]c2c(c1C)C(=O)CC(C)(C)C2)C(=O)NCc1ccc(CN(C)C)cc1 [Example 6-34] | 500 to 1000 | < 50 | < 50 | –
Cc1c(C(=O)NC(CCC2CC2)C(=O)Nc2ccccc2)[nH]c2c1C(=O)CC(C)(C)C2 (stereo not drawn) [Example 6-17] | 500 to 1000 | 50 to 200 | < 50 | –
